The experiment addresses human PRMT6 (Homo sapiens, UniProt Q96LA8). Kind of experiment: biochemical. The text has this:
General Materials. S-adenosylmethionine (SAM), S-adenosylhomocysteine (SAH), bicine, Tween20, dimethylsulfoxide (DMSO), bovine skin gelatin (BSG), sodium butyrate and Tris(2-carboxyethyl)phosphine hydrochloride solution (TCEP) were purchased from Sigma-Aldrich at the highest level of purity possible. ^3H-SAM was purchase from American Radiolabeled Chemicals with a specific activity of 80 Ci/mmol. 384-well streptavidin Flashplates were purchased from PerkinElmer.
Substrates. Peptide representative of human histone H4 residues 36-50 was synthesized with an N-terminal linker-affinity tag motif and a C-terminal amide cap by 21st Century Biochemicals. The peptide was purified by high-performance liquid chromatography (HPLC) to greater than 95% purity and confirmed by liquid chromatography mass spectrometry (LC-MS). The sequence was Biot-Ahx-[…]-amide and contained a monomethylated lysine at position 44 (SEQ ID NO.:5).
Molecular Biology: Full-length human PRMT6 (NM_018137.2) transcript clone was amplified from an HEK 293 cDNA library, incorporating a flanking 5′ sequence encoding a FLAG tag ([…]) (SEQ ID NO.:6) fused directly to Ser 2 of PRMT6 and a 3′ sequence encoding a hexa His sequence (HHHHHH) (SEQ ID NO.: 17) fused directly to Asp 375. The amplified gene was subcloned into pFastBacMam (Viva Biotech).
Protein Expression. Recombinant baculovirus were generated according to Bac-to-Bac kit instructions (Life Technologies). […] Infections were carried out at 37° C. for 48 hours, harvested by centrifugation, and stored at −80° C. for purification.
Protein Purification. […] Column was washed with 20 mM imidazole in the same buffer and Flag-PRMT6-His was eluted with 150 mM imidazole. Pooled fractions were dialysed against buffer Ni-A and further purified by anti-flag M2 affinity chromatography. Flag-PRMT6-His was eluted with 200 ug/ml FLAG peptide in the same buffer. Pooled fractions were dialysed in 20 mM Tris, 150 mM NaCl, 10% glycerol and 5 mM β-mercaptoethanol, pH 7.8. The purity of recovered protein was 95%.
General Procedure for PRMT6 Enzyme Assays on Peptide Substrates. The assays were all performed in a buffer consisting of 20 mM Bicine (pH=7.6), 1 mM TCEP, 0.005% BSG, and 0.002% Tween 20, prepared on the day of use. Compounds in 100% DMSO (1 ul) were spotted into a polypropylene 384-well V-bottom plates (Greiner) using a Platemate Plus outfitted with a 384-channel head (Thermo Scientific). DMSO (1 ul) was added to Columns 11, 12, 23, 24, rows A-H for the maximum signal control and 1 ul of SAH, a known product and inhibitor of PRMT6, was added to columns 11, 12, 23, 24, rows I-P for the minimum signal control. A cocktail (40 ul) containing the PRMT6 enzyme was added by Multidrop Combi (Thermo-Fisher). The compounds were allowed to incubate with PRMT6 for 30 min at room temperature, then a cocktail (10 ul) containing SAM and peptide was added to initiate the reaction (final volume=51 ul). The final concentrations of the components were as follows: PRMT6 was 1 nM, ^3H-SAM was 200 nM, non-radiolabeled SAM was 250 nM, peptide was 75 nM, SAH in the minimum signal control wells was 1 mM, and the DMSO concentration was 2%. The assays were stopped by the addition of non-radiolabeled SAM (10 ul) to a final concentration of 400 uM, which dilutes the ^3H-SAM to a level where its incorporation into the peptide substrate is no longer detectable. 50 ul of the reaction in the 384-well polypropylene plate was then transferred to a 384-well Flashplate and the biotinylated peptides were allowed to bind to the streptavidin surface for at least 1 hour before being washed once with 0.1% Tween20 in a Biotek EL×405 plate washer. The plates were then read in a PerkinElmer TopCount plate reader to measure the quantity of ^3H-labeled peptide bound to the Flashplate surface, measured as disintegrations per minute (dpm) or alternatively, referred to as counts per minute (cpm). […]

The mark [1] stands for this setting: biochemical evaluation, peptide substrate, read-out: PRMT6 IC50.
The mark [2] stands for this setting: single experiment or average of multiple experiments, read-out: PRMT6 biochemical evaluation (numerical).

The structures appear in SMILES notation. Read-outs that look alike come from different tables or passages of the source.

Chain of human PRMT6 (Q96LA8 with tags, fused parts or gaps): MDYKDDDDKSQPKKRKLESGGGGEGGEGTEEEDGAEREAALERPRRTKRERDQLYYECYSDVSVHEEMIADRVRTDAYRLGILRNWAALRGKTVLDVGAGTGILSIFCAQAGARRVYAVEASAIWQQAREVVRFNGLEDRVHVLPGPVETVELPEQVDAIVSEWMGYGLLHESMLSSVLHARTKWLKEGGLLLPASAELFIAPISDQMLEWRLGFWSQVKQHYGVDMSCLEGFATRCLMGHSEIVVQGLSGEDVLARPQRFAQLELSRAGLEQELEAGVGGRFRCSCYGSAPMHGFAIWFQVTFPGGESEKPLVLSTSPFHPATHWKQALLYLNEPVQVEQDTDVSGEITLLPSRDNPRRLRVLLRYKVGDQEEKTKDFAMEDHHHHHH

With `CNCCN(C)Cc1n[nH]c2ccc(OCCc3ccccc3)cc12` [Compound 7], the IC50 under setting [1] was under 100 nM and the IC50 under setting [2] is 6.78 nM.
For `CNCCN(C)Cc1n[nH]c2ccc(Oc3ccccc3)cc12` [Compound 10, N^1,N^2-dimethyl-N^1-((5-phenoxy-1H-indazol-3-yl)methyl)ethane-1,2-diamine] the same measures were 101 to 1000 nM and 125 nM.
In the case of `CNCCN(C)Cc1n[nH]c2ccc(OCc3cccc(NC(C)=O)c3)cc12` [Compound 70], the IC50 is under 100 nM under setting [1] and 15.1 nM under setting [2].
In the case of `CNCCN(C)Cc1n[nH]c2ccc(Oc3ccc(C(F)(F)F)cc3)cc12` [Compound 39], the IC50 is 101 to 1000 nM under setting [1] and 694 nM under setting [2].
On to `CNCCN(C)Cc1n[nH]c2ccc(OC3CCOC3)cc12` (stereo not drawn) [Compound 25, N^1,N^2-dimethyl-N^1-((5-((tetrahydrofuran-3-yl)oxy)-1H-indazol-3-yl)methyl)ethane-1,2-diamine], for which the IC50 is, setting by setting: under setting [1], under 100 nM; under setting [2], 5.05 nM.
As to `CNCCN(C)Cc1c2cc(OCc3ccc(C#N)cc3)ccc2nn1C1CCOCC1` [Compound 53], the IC50 under setting [1] was in the range of 1010 to 3000 nM and the IC50 under setting [2] is 2550 nM.
On the same counts, the results for `CNCCN(C)Cc1n[nH]c2ccc(Oc3cccc(C)c3)cc12` [Compound 26] are 101 to 1000 nM and 201 nM.
In the case of `CNCCN(C)Cc1n[nH]c2ccc(Oc3cccc(Cl)c3)cc12` [Compound 27, N^1-((5-(3-chlorophenoxy)-1H-indazol-3-yl)methyl)-N^1,N^2-dimethylethane-1,2-diamine], the IC50 by setting is: under setting [1], 101 to 1000 nM; under setting [2], 53.7 nM.
As for `CNCCN(C)Cc1n[nH]c2ccc(OC3CCN(C(C)=O)CC3)cc12` [Compound 58, 1-(4-((3-((methyl(2-(methylamino)ethyl)amino)methyl)-1H-indazol-5-yl)oxy)piperidin-1-yl)ethan-1-one], the IC50 reads like this: under setting [1], 101 to 1000 nM; under setting [2], 447 nM.
For `CNCCN(C)Cc1n[nH]c2ccc(C3=CCOCC3)cc12` [Compound 45] the same measures were under 100 nM and 58.1 nM.
For `CNCCN(C)Cc1n[nH]c2ccc(OCc3ccccn3)cc12` [Compound 12] the same measures were under 100 nM and 44.1 nM.
`CNCCN(C)Cc1n[nH]c2ccc(C3CCOCC3)cc12` [Compound 44, N^1,N^2-dimethyl-N^1-((5-(tetrahydro-2H-pyran-4-yl)-1H-indazol-3-yl)methyl)ethane-1,2-diamine]: the IC50 by setting is: under setting [1], under 100 nM; under setting [2], 72 nM.
As for `CNCCN(C)Cc1n[nH]c2ccc(OCc3cccc(C(C)(C)C)c3)cc12` [Compound 74], the IC50 is under 100 nM under setting [1] and 9.09 nM under setting [2].
For `CNCCN(C)Cc1n[nH]c2ccc(OCC3CCN(C(C)=O)CC3)cc12` [Compound 51] the same measures were 1010 to 3000 nM and over 10000 nM.
For `CNCCN(C)Cc1n[nH]c2ccc(OCc3ccc(C(F)(F)F)cc3)cc12` [Compound 68] the same measures were under 100 nM and 39.7 nM.
For `CNCCN(C)Cc1n[nH]c2cccc(OCc3ccccc3)c12` [Compound 21] the same measures were under 100 nM and 21.5 nM.
On to `CNCCN(C)Cc1n[nH]c2ccc(Oc3ccccc3OC)cc12` [Compound 24], for which the IC50 by setting is: under setting [1], 101 to 1000 nM; under setting [2], 80.3 nM.
For `CNCCN(C)Cc1n[nH]c2ccc(Oc3ccc(C)cc3)cc12` [Compound 55] the same measures were 101 to 1000 nM and 1020 nM.
On the same counts, the results for `CCOc1ccc2[nH]nc(CN(C)CCNC)c2c1` [Compound 63] are 101 to 1000 nM and 164 nM.
Regarding `CNCCN(C)Cc1n[nH]c2ccc(C3CCCCC3)cc12` [Compound 47, N^1-((5-cyclohexyl-1H-indazol-3-yl)methyl)-N^1,N^2-dimethylethane-1,2-diamine], the IC50 was under 100 nM under setting [1] and 74.3 nM under setting [2].
For `CNCCN(C)Cc1n[nH]c2ccc(OCc3cccc(C#N)c3)cc12` [Compound 14] the same measures were under 100 nM and 5.29 nM.
In the case of `CNCCN(C)Cc1nn(C2CCN(C(C)=O)CC2)c2ccc(OCc3ccc(C#N)cc3)cc12` [Compound 38], the IC50 under setting [1] was in the range of 101 to 1000 nM and the IC50 under setting [2] is 1870 nM.
With `CNCCN(C)Cc1n[nH]c2ccc(OC3CCCC3)cc12` [Compound 11], the IC50 by setting is: under setting [1], under 100 nM; under setting [2], 9.68 nM.
In the case of `CNCCN(C)Cc1n[nH]c2ccc(OCCC(C)C)cc12` [Compound 8], the IC50 is under 100 nM under setting [1] and 56 nM under setting [2].
For `CNCCN(C)Cc1n[nH]c2ccc(OCC3CCOCC3)cc12` [Compound 50] the same measures were 3010 to 10000 nM and 45 nM.
Take `CNCCN(C)Cc1n[nH]c2ccc(OC3CCCCC3)cc12` [Compound 18]: the IC50 runs as follows: under setting [1], under 100 nM; under setting [2], 10.3 nM.
On the same counts, the results for `CNCCN(C)Cc1n[nH]c2ccc(OCc3ccc(C(C)(C)C)cc3)cc12` [Compound 71] are under 100 nM and 13.1 nM.
On the same counts, the results for `CNCCN(C)Cc1n[nH]c2ccc(O)cc12` [Compound 36, 3-((methyl(2-(methylamino)ethyl)amino)methyl)-1H-indazol-5-ol] are 1010 to 3000 nM and 6670 nM.
On the same counts, the results for `CNCCN(C)Cc1n[nH]c2ccc(Oc3ccccc3Cl)cc12` [Compound 30] are 101 to 1000 nM and 131 nM.
Turning to `CNCCN(C)Cc1n[nH]c2ccc(Oc3ccc(OC(C)C)cc3)cc12` [Compound 61], the IC50 under setting [1] fell in the range of 101 to 1000 nM and the IC50 under setting [2] was determined as 236 nM.

The record behind these values is patent US9765035B2 (priority 2013, dated 2017).
